In patent publication US11859248B2, “Nucleic acid modification and identification method” (IMBA—INSTITUT FÜR MOLEKULARE BIOTECHNOLOGIE GMBH, priority 2017, dated 2024):
Like-named read-outs stand apart in the source and are kept apart here.

Assays:
[1] = tested on: mES cells; experiment: Cell viability assay (CellTiter-Glo) of mES cells cultured with s^4U; assay type: cell-based, mouse; settings: for EC50: Mus musculus, read-out: EC50 of compromised cell viability
Protocol: 5000 mES cells were seeded per 96 well the day before the experiment. Medium containing different concentrations of s^4U (as indicated) was added to the cells for 12 h or 24 h. Cell viability was assessed by CellTiter-Glo® Luminescent Cell Viability Assay (Promega) according to the instructions of the manufacturer. Luminescent signal was measured on Synergy using Gen5 Software (v2.09.1).
We tested the ability of mouse embryonic stem cells to tolerate s^4U metabolic RNA-labeling after 12 h or 24 h at varying s^4U concentrations (FIG. 6A). […] Under these conditions, we detected a steady increase in s^4U-incorporation in total RNA preparation 3 h, 6 h, 12 h, and 24 h post labeling, as well as a steady decrease 3 h, 6 h, 12 h, and 24 h after uridine chase (FIG. 6B). As expected, the incorporation follows a single exponential kinetics, with a maximum average incorporation of 1.78% s^4U, corresponding to one s^4U incorporation in every 56 uridines in total RNA (FIG. 6C). These experiments establish s^4U-labeling conditions in mES cells, which can be employed to measure RNA biogenesis and turnover rates under unperturbed conditions.

[2] = tested on: mES cells; experiment: HPLC analysis of s^4U-incorporation into total RNA of mES cells after metabolic labeling; assay type: cell-based, mouse; settings: 100 μM s^4U, 24 h labeling
Protocol: (§1) Analysis of s^4U- or s^6G-incorporation into total RNA following metabolic labeling was performed as previously described by Spitzer et al. (Meth Enzymol. 539, 113-161 (2014)).
mES cells were seeded the day before the experiment at a density of 10^5 cells/ml in 10 cm dishes. s^4U-metabolic labeling was performed by incubation of mES cells in standard medium but adding 100 μM s^4U or s^6G (SIGMA) from a 500 mM stock solution in water. During the metabolic labeling, s^4U or s^6G containing medium was exchanged every 3 h. For the uridine chase experiment, s^4U or s^6G containing medium was discarded, cells were washed twice with 1× PBS and incubated with standard medium supplemented with 10 mM uridine (SIGMA). Cells were directly lysed in TRIzol® (Ambion) and RNA was extracted following the manufacturer instructions except that 0.1 mM final concentration of DTT was added during isopropanol precipitation. RNA was resuspended in 1 mM DTT. […]
We tested the ability of mouse embryonic stem cells to tolerate s^4U metabolic RNA-labeling after 12 h or 24 h at varying s^4U concentrations (FIG. 6A). […] Under these conditions, we detected a steady increase in s^4U-incorporation in total RNA preparation 3 h, 6 h, 12 h, and 24 h post labeling, as well as a steady decrease 3 h, 6 h, 12 h, and 24 h after uridine chase (FIG. 6B). […]

[3] = tested on: mES cells; experiment: mRNA 3' end sequencing (Quant-seq/SLAM-seq) of mES cells after s^4U metabolic labeling; assay type: cell-based, mouse
Protocol: mES cells were seeded the day before the experiment at a density of 10^5 cells/ml in 10 cm dishes. s^4U-metabolic labeling was performed by incubation of mES cells in standard medium but adding 100 μM s^4U or s^6G (SIGMA) from a 500 mM stock solution in water. During the metabolic labeling, s^4U or s^6G containing medium was exchanged every 3 h. For the uridine chase experiment, s^4U or s^6G containing medium was discarded, cells were washed twice with 1× PBS and incubated with standard medium supplemented with 10 mM uridine (SIGMA). […]
For analysis of mRNA 3′ end sequencing (Quant-seq) datasets, reads were demultiplexed using Picard Tools BamIndexDecoder v1.13 allowing 1 mismatch in the barcode. Five nucleotides at the 5′ end of demultiplexed reads were trimmed. Reads were aligned to mouse genome mm10 and alignments in annotated 3′ UTRs (Gencode) were counted using SLAMdunk (Neumann & Rescheneder, t-neumann.github.io/slamdunk/; Herzog et al., Nature Methods 14, 1198-1204 (2017)). Briefly, SLAMdunk relies on NextGenMap, a flexible and fast read mapping program, and was tailored using an adapted scoring scheme eliminating T>C mismatch penalties for the mapping step. T>C containing reads and non-T>C containing reads aligning to 3′ UTRs were quantified to deduce s^4U- or unlabeled transcript abundance, respectively. […]

[4] = tested on: Drosophila S2 cells; experiment: HPLC analysis of s^4U-incorporation into total RNA of Drosophila S2 cells; assay type: cell-based, Drosophila melanogaster; settings: 500 μM s^4U, 24 h
Protocol: as §1
Upon generating libraries from size-selected total RNA of Drosophila S2 cells after s^4U metabolic labeling for 24 hours, we observed a strong accumulation of T>C conversions when compared to libraries prepared from unlabeled cells, as exemplified for the miR-184 locus, which gives rise to an abundantly expressed microRNA, miR-184-3p, and its less abundant miR*, miR-184-5p (FIG. 12A). In order to confirm this observation at the genomic scale, we aligned reads to annotated microRNA loci in the Drosophila genome and inspected the frequency of any given mutation normalized to overall T-content per miRNA (FIG. 12B). In the absence of s^4U metabolic labeling, we observed a median mutation rate of less than 0.1% for any given mutation, a rate that is consistent with Illumina-reported sequencing error rates. (Note, that iodoacetamide treatment of unlabeled total RNA had no detectable impact on small RNA abundance and mutation rate, as determined by high-throughput sequencing. See FIG. 19). […]

[5] = tested on: Drosophila S2 cells; experiment: Small RNA sequencing of Drosophila S2 cells after s^4U metabolic labeling; assay type: cell-based, Drosophila melanogaster
Protocol: Upon generating libraries from size-selected total RNA of Drosophila S2 cells after s^4U metabolic labeling for 24 hours, we observed a strong accumulation of T>C conversions when compared to libraries prepared from unlabeled cells, as exemplified for the miR-184 locus, which gives rise to an abundantly expressed microRNA, miR-184-3p, and its less abundant miR*, miR-184-5p (FIG. 12A). In order to confirm this observation at the genomic scale, we aligned reads to annotated microRNA loci in the Drosophila genome and inspected the frequency of any given mutation normalized to overall T-content per miRNA (FIG. 12B). In the absence of s^4U metabolic labeling, we observed a median mutation rate of less than 0.1% for any given mutation, a rate that is consistent with Illumina-reported sequencing error rates. (Note, that iodoacetamide treatment of unlabeled total RNA had no detectable impact on small RNA abundance and mutation rate, as determined by high-throughput sequencing. See FIG. 19). After 24 h of s^4U metabolic labeling, we observed a statistically significant (p<10^−4, Mann-Whitney test), 74-fold increase in T>C mutation rates, while all other mutations remained below expected sequencing error rates (FIG. 12B).

[6] = tested on: Drosophila S2 cells; experiment: Viability of Drosophila S2 cells under s^4U labeling conditions; assay type: cell-based, Drosophila melanogaster; settings: 500 μM, 24 h

In the case of `O=c1[nH]c(=S)ccn1[C@@H]1O[C@H](CO)[C@@H](O)[C@H]1O` [s^4U, 4-thiouridine], the “effect on cell viability” value ([1]; 100 μM s^4U) is reported as “did not severely affect cell viability”, the EC50 ([1]; 12 h labeling) is reported as 3100 µM and the EC50 ([1]; 24 h labeling) is reported as 380 µM. The “maximum average s^4U incorporation in total RNA” value [2] was 1.78%, the “median s^4U-incorporation in mRNA (3' UTRs)” value ([3]; 24 h labeling) was 2.56% and the “increase in T>C mutation rates” value ([3]; 24 h labeling vs unlabeled) was 25 fold. The “labeling efficiency in total RNA” value [4] was 2.3%, the “median s^4U-incorporation in miRNAs” value ([5]; 500 μM s^4U, 24 h labeling) was 2.22% and the “increase in T>C mutation rates” value ([5]; 24 h labeling vs unlabeled) was 74 fold. The “effect on cell viability” value [6] was “do not interfere with cell viability”.
